US20040106120A1, “Diagnosis and treatment of disease” (priority 2000, published 2004)

Tests used:
[1] = system: reconstituted human epidermis cultures (skin equivalents); experiment: Treatment of skin equivalents (reconstituted human epidermis cultures) for 16 hours, light microscopy histology; format: cell-based; conditions: 16 hours at 37° C; for effect of peptide on stratum corneum of skin equivalent: 6 μM peptide, 200 μl applied to surface, versus buffered salt solution; for effect of cytokine on stratum corneum thickness of skin equivalent: 2.5 ng/ml added to medium
Protocol: 1 ml of room temperature SkinEthic maintenance medium is added to each well of 6-well tissue culture plates (one well per skin equivalent). The cell culture inserts containing the skin equivalents are removed from the agarose transportation medium using sterile forceps and placed in the wells ensuring no air bubbles are formed. The well plates are placed in a humid incubator at 37° C., 5% CO2. After 24 hours the medium is changed and the appropriate treatment is applied. 200 μl of each treatment is applied to the surface of the skin equivalent as follows: Control—buffered salt solution; 10% foetal bovine serum; 0.25% chymotrypsin; 6 μM Peptide 643.
All reagents are made up to the correct concentration in a buffered salt solution comprising the following in 1 litre: 0.142 g Na2HPO4, 1.802 g Glucose, 7.149 g HEPES, 0.224 g KCl, 7.597 g NaCl, pH 7.4.
Treatments are allowed to act on the cultures for 16 hours at 37° C.
The skin equivalents and membranes are cut from the cell culture insert using a scalpel. The equivalents are fixed in 10% formalin (3.7% formaldehyde) in phosphate buffered saline for 24 hours at 4° C. Samples are washed in 3 changes of PBS. The PBS is the decanted from the samples which are dehydrated in 3×5 minute changes of 70% ethanol, 2×5 minute changes of 95% ethanol and 2×5 minute changes of 100% ethanol. The samples are then placed in xylene for 5 minutes and then molten paraffin for infiltration for 5 minutes. The samples are occasionally agitated during each of the steps. The equivalents are then oriented in more molten paraffin in an embedding mould and allowed to set for 1 hour.
5 μm sections are taken of each block and collected on glass microscope slides. The slides are dried at 50° C. overnight.
The slides are racked and placed in xylene for 2×5 minute washes to remove any unwanted paraffin. The slides are then rehydrated by placing them for 5 minutes in each of the following; 2×100% ethanol, 1×95% ethanol, 1×70% ethanol. The slides are then rinsed in running tap water for 1 minute. Staining is with Gill's haematoxylin (2 minutes) followed by rinsing in water for 2 minutes then placing in 1% eosin for 5 minutes and rinsing briefly in water. The samples are dehydrated once more by placing in 70% ethanol for 30 seconds, 95% ethanol for 30 seconds and 2 changes of 100% ethanol for 1 and 2 minutes each. The slides are then placed in xylene for 1 minute before mounting coverslips with DPX mountant for microscopy.
Slides are examined under light microscope at using the 40×objective lens and typical images are captured onto the PC using Synoptics Acquis Pro.
1 ml of room temperature SkinEthic maintenance medium is added to each well of 6-well tissue culture plates (one well per skin equivalent). The cell culture inserts containing the skin equivalents are removed from the agarose transportation medium using sterile forceps and placed in the wells ensuring no air bubbles are formed. The well plates are placed in a humid incubator at 37° C., 5% CO2. After 24 hours the medium is changed and the appropriate treatment is applied.
200 μl of the following treatments are applied to the surface of the skin equivalents: (1) Control—buffered salt solution; (2) 6 μM Peptide 641; (3) 6 μM Peptide 642; (4) 6 μM Peptide643; (5) 6 μM Peptide 651; (6) 6 μM Peptide 653.
The following treatments are diluted from stock solutions (10 μg/ml TNF-α, 1 μg/m IL-1β) directly into 1 ml of medium and added to the well during the medium change: (7) 2.5 ng/ml TNF-α; and (8) 75 ng/ml IL-1β.

[2] = system: psoriatic skin biopsy (stratum corneum); experiment: Treatment of skin biopsies from psoriatic patients with protease, transmission electron microscopy; parameters: species or system human; conditions: 0.25% chymotrypsin, 16 hours at 37° C, versus untreated half
Protocol: All biopsies are carried out by a dermatologist in an operating theatre. Aseptic technique is employed and sterile/disposable equipment used throughout the procedure. Two skin biopsies are taken from the lower back of each patient, one from an area of active plaque psoriasis and the other from an uninvolved site at least 10 cm away. The lower back is cleaned with antiseptic solution and local anaesthetic introduced to the intended areas of biopsy. Ellipses approximately 1.5 cm by 0.5 cm are excised from both lesional and non-lesional skin and placed in a container with PBS solution. The wounds are sutured using catgut for deep sutures and ethilon for superficial sutures (employing two or three stitches per wound). After the operation the wounds are covered with a sterile dressing and the patient observed for 30 minutes before being allowed home. Sutures are removed two weeks later.
The following procedures are performed under aseptic conditions: The psoriatic skin biopsy is cut into 2 pieces using a sterile scalpel. One half of the biopsy is placed in 2 ml of 0.25% chymotrypsin (diluted from a 10×stock in skin maintenance medium, Skinethic) in one well of a 24-well plate. The other half is incubated in 2 ml of maintenance medium with no additions. […]
Ultrathin sections (70-90 nm) are cut on an ultramicrotome. […] Electron micrographs are recorded on Agfa Scientia 23D56 EM film.

chymotrypsin = chymotrypsin (Bos taurus, UniProt P00766); experiment: Chymotrypsin proteolysis of synthetic corneodesmosin peptides; format: biochemical; conditions: peptide exposed to chymotrypsin in appropriate buffer
Description: Peptides corresponding to fragments of corneodesmosin, and comprising amino acids at and around position 40 (L20815; corresponding to position 180 on the nucleotide sequence) are synthesised. The peptides are exposed to chymotrypsin in appropriate buffer, and the digestion products identified. Chymotrypsin is known to cleave the peptide bond C-terminal to a F, Y or W residue, but not C-terminal to an L residue.
Peptides P1 and P2 (size 38 amino acids, comprising L and F at position 40 of L20815 respectively) are exposed to chymotrypsin. Peptide P1 has the sequence PTRITSPNDPCL40[…], while peptide P2 has the sequence PTRITSPNDPCF40[…].
The above results are confirmed by using the ExPASy Molecular Biology Server at http://www.expasy.ch/.

NH2-cys-val-ser-pro-val-lys-ala-COOH (H-CVSPVKA-OH) [Peptide 643, fragment of SLPI (CVSPVKA)]
effect of peptide on stratum corneum of skin equivalent [1]: thickening of the stratum corneum

NH2-leu-asp-pro-val-asp-COOH [Peptide 651]
effect of peptide on stratum corneum of skin equivalent [1]: increase in the thickness of the stratum corneum

NH2-leu-asp-pro-val-asp-thr-pro-asn-pro-thr-arg-arg-lys-pro-gly-COOH [Peptide 653]
effect of peptide on stratum corneum of skin equivalent [1]: increase in the thickness of the stratum corneum

chymotrypsin
effect of protease on stratum corneum barrier of skin equivalent ([1]; applied to surface, chymotrypsin 0.25%): degrades the barrier of the stratum corneum
corneodesmosomes visible in stratum corneum [2]: far fewer corneodesmosomes are visible
stratum corneum morphology (corneocyte layers) [2]: splitting of the layers of corneocytes (acantholysis)

TNF-α
effect of cytokine on stratum corneum thickness of skin equivalent [1]: increase in the thickness of the stratum corneum

PTRITSPNDPCL40TGKGDSSGFSGSSSSGSSISSAR [peptide P1]
products of proteolysis by chymotrypsin (chymotrypsin): two products of proteolysis

NH2-met-glu-asn-ser-leu-gly-pro-phe-pro-gln-cys-COOH (H-MENSLGPFPQC-OH) [Peptide 641, fragment of Desmocollin 1 (…)]
effect of peptide on stratum corneum of skin equivalent [1]: more permeable

IL-1β: cytokine purchased from Calbiochem
effect of cytokine on stratum corneum thickness of skin equivalent [1]: increase in the thickness of the stratum corneum

NH2-ser-gly-lys-arg-asp-lys-ser-glu-glu-val-gln-cys-COOH (H-SGKRDKSEEVQC-OH) [Peptide 642, fragment of Desmoplakin (…)]
effect of peptide on stratum corneum of skin equivalent [1]: more permeable

PTRITSPNDPCF40TGKGDSSGFSGSSSSGSSISSAR [peptide P2]
products of proteolysis by chymotrypsin (chymotrypsin): three small peptides
